In one test the target is T1, β3 adrenergic receptors (Mus musculus, UniProt P25962).
T1 construct: endogenous in cells; host or cells: living flox/flox and desnutrin-ASKO mice (whole animal)
Description: Oxygen consumption (VO2) by indirect calorimetry after injection of β3-agonist. The note with it: intraperitoneal injection 1 mg/kg body weight. Format: in vivo, mice. As for the experimental part: Oxygen consumption (VO2) was measured using the Comprehensive Laboratory Animal Monitoring System (CLAMS; Columbus Instruments). Data were normalized to body weights. Body temperatures were assessed in 25 wk-old male mice using a RET-3 rectal probe for mice (Physitemp). […] was intraperitoneally injected into mice at 1 mg/kg body weight.
Oxygen consumption (VO2) was measured using the Comprehensive Laboratory Animal Monitoring System (CLAMS: Columbus Instruments). Data were normalized to body weights. Body temperatures were assessed using a RET-3 rectal probe for mice (Physitemp).
Since lipolysis and FAs are critical for thermogenesis, it was predicted that the severely blunted lipolysis in desnutrin-ASKO mice, would lead to impaired thermogenesis. Desnutrin-ASKO mice and flox/flox littermates were subjected to cold stress. […] To test this, a β3-agonist, […], was injected into desnutrin-ASKO and flox/flox mice and oxygen consumption was monitored.
FIGS. 2A-G. Decreased lipolysis in desnutrin-ASKO mice results in impaired thermogenesis and energy expenditure. […] F) Oxygen consumption rate (VO2) measured through indirect calorimetry. G) Oxygen consumption rate (VO2) measured through indirect calorimetry after intraperitoneal injection of CL316243. […]

The target in test [1] is wild type desnutrin-HA-GFP (murine) (UniProt Q8BJ56). Description: cell-based or functional assay.
wild type desnutrin-HA-GFP (murine), sequence (Q8BJ56 whole entry): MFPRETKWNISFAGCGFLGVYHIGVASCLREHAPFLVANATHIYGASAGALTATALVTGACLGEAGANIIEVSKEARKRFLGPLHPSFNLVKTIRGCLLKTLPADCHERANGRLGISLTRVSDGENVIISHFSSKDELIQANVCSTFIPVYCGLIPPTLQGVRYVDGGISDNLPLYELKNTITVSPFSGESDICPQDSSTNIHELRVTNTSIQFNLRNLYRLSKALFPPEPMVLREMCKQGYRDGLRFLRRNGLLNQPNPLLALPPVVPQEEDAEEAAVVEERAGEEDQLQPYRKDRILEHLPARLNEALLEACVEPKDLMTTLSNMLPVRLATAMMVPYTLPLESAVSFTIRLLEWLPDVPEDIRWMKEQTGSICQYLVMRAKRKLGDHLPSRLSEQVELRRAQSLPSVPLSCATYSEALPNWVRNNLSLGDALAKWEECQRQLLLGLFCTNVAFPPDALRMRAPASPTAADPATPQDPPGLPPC
Test [2] deals with HEK 293 cells transfected with wild type desnutrin-HA-GFP. Description: Glycerol release (lipolysis) from oleate loaded HEK 293 cells transfected with wild type desnutrin-HA-GFP. Format: cell-based. The settings on record: treated with AICAR vs without. On the procedure: (§1) Gonadal fat pads or BAT from overnight fasted mice were cut into 50 mg samples and incubated at 37° C. without shaking in […] of Krebs-Ringer buffer (12 mM HEPES, 121 mM NaCl, 4.9 mM KCl, 1.2 mM MgSO4 and 0.33 mM CaCl2) containing 2% fatty acid free bovine serum albumin (BSA) and 0.1% glucose with or without 10 μM isoproterenol. Fatty acid (FA) and glycerol release were measured in aliquots from incubation buffer using the NEFA C Kit (Wako) and Free Glycerol Reagent (Sigma), respectively. […] Glycerol and fatty acid were determined using the kits described above.
(§2) The role of AMPK in lipolysis is controversial, with several reporting AMPK stimulates lipolysis and others showing it inhibits lipolysis, via phosphorylation of HSL at S563 (Daval et al., 2005; Koh et al., 2007; Lage et al., 2008; Yin et al., 2003). To determine the effect of AMPK specifically on desnutrin-mediated Lipolysis, oleate loaded HEK 293 cells, transfected with wild type desnutrin-HA-GFP, mutant S406A-desnutrin-HA-GFP or GFP control, were treated with the cell-permeable AMPK-activator, 5-amino-4-imidazolecarboxamide riboside (AICAR), and lipolysis was determined by measuring glycerol release. […] To test the effect of AMPK on lipolysis in vivo, AICAR was administered intraperitoneally to flox/flox and desnutrin-ASKO mice and then measured serum FA levels. […]

Test [3] relates to HEK 293 cells transfected with mutant S406A-desnutrin-HA-GFP. Put plainly: Glycerol release (lipolysis) from oleate loaded HEK 293 cells transfected with mutant S406A-desnutrin-HA-GFP. It is filed as cell-based. The settings on record: treated with AICAR vs without. On the procedure:
as §1, §2

For a further test, the system named is AMPK. Description: Effect of AMPK activation on lipolysis in vivo: serum FA levels after intraperitoneal AICAR. Set-up: species or system mice. The settings on record: five hours after injection. On the procedure:
Fasting serum triglycerides and FAs were analyzed with Infinity Triglyceride reagent (Thermo Trace) and NEFA C kit (Wako), respectively. Serum insulin, were determined using enzyme-linked immunosorbent assay kits (Alpco).
The role of AMPK in lipolysis is controversial, with several reporting AMPK stimulates lipolysis and others showing it inhibits lipolysis, via phosphorylation of HSL at S563 (Daval et al., 2005; Koh et al., 2007; Lage et al., 2008; Yin et al., 2003). To determine the effect of AMPK specifically on desnutrin-mediated Lipolysis, oleate loaded HEK 293 cells, transfected with wild type desnutrin-HA-GFP, mutant S406A-desnutrin-HA-GFP or GFP control, were treated with the cell-permeable AMPK-activator, 5-amino-4-imidazolecarboxamide riboside (AICAR), and lipolysis was determined by measuring glycerol release. […] To test the effect of AMPK on lipolysis in vivo, AICAR was administered intraperitoneally to flox/flox and desnutrin-ASKO mice and then measured serum FA levels. […] Therefore, AMPK phosphorylates desnutrin to increase lipolysis and promote FA oxidation in adipocytes.
FIGS. 3A-N. Desnutrin ablation converts BAT to WAT, and phosphorylation of desnutrin by AMPK increases lipolysis. […] I) FA oxidation, measured by ^14CO2 production from [U^14C] palmitate, from isolated brown adipocytes (left) and white adipocytes (right) from flox/flox and desnutrin-ASKO mice (n=4). […]

Data on three compounds can be found in patent publication US20140147431A1, “Compositions and Methods for Modulating Desnutrin-Mediated Adipocyte Lipolysis” (The Regents of the University of California, priority 2010, published 2014).

T1 sequence (P25962 whole entry): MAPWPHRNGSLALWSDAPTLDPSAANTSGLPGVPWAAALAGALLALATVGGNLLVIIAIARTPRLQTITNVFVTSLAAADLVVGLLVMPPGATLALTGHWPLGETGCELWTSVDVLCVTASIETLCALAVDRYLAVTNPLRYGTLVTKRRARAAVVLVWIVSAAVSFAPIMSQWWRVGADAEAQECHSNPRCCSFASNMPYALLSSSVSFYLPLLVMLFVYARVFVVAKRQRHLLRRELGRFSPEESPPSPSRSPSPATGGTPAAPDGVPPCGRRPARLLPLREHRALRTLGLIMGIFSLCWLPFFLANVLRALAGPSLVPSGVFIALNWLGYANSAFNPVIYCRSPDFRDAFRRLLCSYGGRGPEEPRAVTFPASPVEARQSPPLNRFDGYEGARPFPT

Consider `C[C@H](Cc1ccc2c(c1)OC(C(=O)O)(C(=O)O)O2)NC[C@H](O)c1cccc(Cl)c1` [CL31624], for which the oxygen consumption entry on β3 adrenergic receptors (desnutrin-ASKO mice) was “no change in oxygen consumption”. Also, at β3 adrenergic receptors (flox/flox mice), the “metabolic rate as indicated by oxygen consumption” value is reported as “drastic increase in their metabolic rate”.

Regarding “AMPK of HEK 293 cells, activated by AICAR”, the glycerol release from oleate loaded HEK 293 cells treated with AICAR in test [1] is 1.8 fold.

For the compound `NC(=O)c1ncn([C@@H]2O[C@H](CO)[C@@H](O)[C@H]2O)c1N` [AICAR, 5-amino-4-imidazolecarboxamide riboside], the entries for the “increase in glycerol release” value in test [2] and in test [3] were 1.8 fold and “failed to do so”, respectively. In addition, the “serum FA levels” value with AMPK (desnutrin-ASKO mice) is on record as “serum FA levels were unchanged”; in the test on AMPK (flox/flox mice), “increased serum FA levels”.
